In patent US8431593B2, “Heteroaryl amide derivatives” (H. Lundbeck A/S, priority 2006, dated 2013):
Where two headings read alike, the source gives them in different places.

Molecular target: T1, P2X7 receptor (Homo sapiens, UniProt Q99572)
T1 construct: host or cells: SH-SY5Y
T1 sequence (Q99572 1-595): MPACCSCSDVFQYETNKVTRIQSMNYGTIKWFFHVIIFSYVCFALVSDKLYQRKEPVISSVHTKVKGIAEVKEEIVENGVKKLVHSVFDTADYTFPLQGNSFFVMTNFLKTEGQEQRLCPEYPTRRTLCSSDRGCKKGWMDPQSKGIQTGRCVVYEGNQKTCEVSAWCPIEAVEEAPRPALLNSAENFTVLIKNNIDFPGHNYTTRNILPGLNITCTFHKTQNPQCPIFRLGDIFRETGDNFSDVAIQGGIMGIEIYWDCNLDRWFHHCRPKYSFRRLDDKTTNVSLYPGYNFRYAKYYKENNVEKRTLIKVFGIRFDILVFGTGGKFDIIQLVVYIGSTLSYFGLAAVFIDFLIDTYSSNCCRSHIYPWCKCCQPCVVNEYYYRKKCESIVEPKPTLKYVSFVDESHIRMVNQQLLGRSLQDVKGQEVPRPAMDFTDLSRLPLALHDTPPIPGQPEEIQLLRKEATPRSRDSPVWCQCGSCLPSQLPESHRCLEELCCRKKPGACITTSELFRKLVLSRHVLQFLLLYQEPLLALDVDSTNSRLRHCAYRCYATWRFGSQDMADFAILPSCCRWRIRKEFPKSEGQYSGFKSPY
Assay: P2X7 calcium mobilization assay, high throughput, antagonist activity (Example 4A)
Type: cell-based
Outline: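 Antagonism was measured as calcium fluorescence (FLIPR Tetra) in cells seeded one day earlier at 100,000/well, loaded with dye for 1 h and exposed to compound for 1 h at room temperature before agonist. Peak RFU, minus the no-agonist background, was referenced to the mean of the agonist wells.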

[1] = 50% decrease in the fluorescence response of cells exposed to 80 μM 2′(3′)-O-(4-benzoyl-benzoyl)adenosine 5′-triphosphate, Example 4A, read-out: IC50

Row | SMILES | IC50 [1] | IC50
1 | CCOC(=O)CN(C)C(=O)c1cn2c(C(=O)NC[C@@H]3CC[C@H]4C[C@@H]3C4(C)C)cccc2n1 [Compound 482, ethyl N-{[5-({[(1S,2R,5S)-6,6-dimethylbicyclo[3.1.1]hept-2-yl]methyl}carbamoyl)imidazo[1,2-a]pyridin-2-yl]carbonyl}-N-methylglycinate] | < 2 µM | 
2 | COCCN(C(=O)c1cn2c(C(=O)NC[C@@H]3CC[C@H]4C[C@@H]3C4(C)C)cccc2n1)C(C)C [Compound 483, 5-N-{[(1S,2R,5S)-6,6-dimethylbicyclo[3.1.1]hept-2-yl]methyl}-2-N-isopropyl-2-N-(2-methoxyethyl)imidazo [1,2-a]pyridine-2,5-dicarboxamide] | < 2 µM | 
3 | CC1(C)[C@H]2CC[C@@H](CNC(=O)c3cccc4nc(C(=O)N5CCC(F)(F)CC5)cn34)[C@@H]1C2 [Compound 485, 2-[(4,4-difluoropiperidin-1-yl)carbonyl]-N-{[(1S,2R,5S)-6,6-dimethylbicyclo[3.1.1]hept-2-yl]methyl} imidazo[1,2-a]pyridine-5-carboxamide] | < 2 µM | 
4 | CC1(C)[C@H]2CC[C@@H](CNC(=O)c3cccc4nc(C(=O)N5CCC(C(F)(F)F)CC5)cn34)[C@@H]1C2 [Compound 488] | < 2 µM | 
5 | CC1(C)CCCN(C(=O)c2cn3c(C(=O)NC[C@@H]4CC[C@H]5C[C@@H]4C5(C)C)cccc3n2)C1 [Compound 491, N-{[(1S,2R,5S)-6,6-dimethylbicyclo [3.1.1]hept-2-yl]methyl}-2-[(3,3-dimethyl-piperidin-1-yl)carbonyl]imidazo [1,2-a]pyridine-5-carboxamide] |  | < 2 µM
6 | CO[C@H]1CCN(C(=O)c2cn3c(C(=O)NC[C@@H]4CC[C@H]5C[C@@H]4C5(C)C)cccc3n2)C1 [Compound 492, N-{[(1S,2R,5S)-6,6-dimethylbicyclo[3.1.1]hept-2-yl]methyl}-2-{[(3S)-3-methoxypyrrolidin-1-yl]carbonyl}imidazo [1,2-a]pyridine-5-carboxamide] | < 2 µM | 
7 | COC1CCN(C(=O)c2cn3c(C(=O)NC[C@@H]4CC[C@H]5C[C@@H]4C5(C)C)cccc3n2)CC1 [Compound 493, N-{[(1S,2R,5S)-6,6-dimethylbicyclo [3.1.1]hept-2-yl]methyl}-2-[(4-methoxy-piperidin-1-yl)carbonyl] imidazo[1,2-a] pyridine-5-carboxamide] | < 2 µM | 
8 | CC1(C)[C@H]2CC[C@@H](CNC(=O)c3cccc4nc(C(=O)N5CCC(F)CC5)cn34)[C@@H]1C2 [Compound 494, N-{[(1S,2R,5S)-6,6-dimethylbicyclo[3.1.1]hept-2-yl]methyl}-2-[(4-fluoropiperidin-1-yl)carbonyl]imidazo[1,2-a]pyridine-5-carboxamide] | < 2 µM | 
9 | CC1(C)[C@H]2CC[C@@H](CNC(=O)c3cccc4nc(C(=O)NC5CCC5)cn34)[C@@H]1C2 [Compound 495, 2-N-cyclobutyl-5-N-{[(1S,2R,5S)-6.6-dimethylbicyclo[3.1.1]hept-2-yl]methyl} imidazo[1,2-a]pyridine-2,5-dicarboxamide] | < 2 µM | 
10 | CC(C)CNC(=O)c1cn2c(C(=O)NC[C@@H]3CC[C@H]4C[C@@H]3C4(C)C)cccc2n1 [Compound 496, 5-N-{[(1S,2R,5S)-6,6-dimethylbicyclo[3.1.1]hept-2-yl]methyl}-2-N-isobutylimidazo[1,2-a]pyridine-2,5-dicarboxamide] | < 2 µM | 
11 | CC1(C)[C@H]2CC[C@@H](CNC(=O)c3cccc4nc(C(=O)NCC5CC5)cn34)[C@@H]1C2 [Compound 497, 2-N-(cyclopropylmethyl)-5-N-{[(1S,2R,5S)-6,6-dimethylbicyclo[3.1.1]hept-2-yl]methyl}imidazo[1,2-a]pyridine-2,5-dicarboxamide] | < 2 µM | 
12 | CCCN(C)C(=O)CNC(=O)c1cn2c(C(=O)NC[C@@H]3CC[C@H]4C[C@@H]3C4(C)C)cccc2n1 [Compound 505, 5-N-{[(1S,2R,5S)-6,6-dimethylbicyclo[3.1.1]hept-2-yl]methyl}-2-N-{2-[methyl(propyl)amino]-2-oxoethyl}imidazo[1,2-a]pyridine-2,5-dicarboxamide] | < 2 µM | 
13 | CC(C)C[C@@H](NC(=O)c1cn2c(C(=O)NC[C@@H]3CC[C@H]4C[C@@H]3C4(C)C)cccc2n1)C(N)=O [Compound 514, 2-N-[(1R)-1-carbamoyl-3-methylbutyl]-5-N-{[(1S,2R,5S)-6,6-dimethylbicyclo[3.1.1]hept-2-yl]methyl} imidazo[1,2-a]pyridine-2,5-dicarboxamide] | < 2 µM | 
14 | CC(C)C[C@H](NC(=O)c1cn2c(C(=O)NC[C@@H]3CC[C@H]4C[C@@H]3C4(C)C)cccc2n1)C(N)=O [Compound 515, 2-N-[(1S)-1-carbamoyl-3-methylbutyl]-5-N-{[(1S,2R,5S)-6,6-dimethylbicyclo [3.1.1]hept-2-yl]methyl} imidazo[1,2-a]pyridine-2,5-dicarboxamide] | < 2 µM | 
15 | CC1(C)[C@H]2CC[C@@H](CNC(=O)c3cccc4nc(C(=O)NC5(CO)CCCC5)cn34)[C@@H]1C2 [Compound 518, 5-N-{[(1S,2R,5S)-6,6-dimethylbicyclo[3.1.1]hept-2-yl]methyl}-2-N-[1-(hydroxymethyl)cyclopentyl] imidazo[1,2-a]pyridine-2,5-dicarboxamide] | < 2 µM | 
16 | CC1(C)[C@H]2CC[C@@H](CNC(=O)c3cccc4nc(C(=O)N[C@@H]5CCCC[C@H]5O)cn34)[C@@H]1C2 [Compound 519, 5-N-{[(1S,2R,5S)-6,6-dimethylbicyclo[3.1.1]hept-2-yl]methyl}-2-N-[(1R,2R)-2-hydroxycyclohexyl] imidazo[1,2-a]pyridine-2,5-dicarboxamide] | < 2 µM | 
17 | CC(C)(CO)NC(=O)c1cn2c(C(=O)NC[C@@H]3CC[C@H]4C[C@@H]3C4(C)C)cccc2n1 [Compound 520, 5-N-{[(1S,2R,5S)-6,6-dimethylbicyclo[3.1.1]hept-2-yl]methyl}-2-N-(2-hydroxy-1,1-dimethylethyl)imidazo[1,2-a]pyridine-2,5-dicarboxamide] |  | < 2 µM
18 | CC(C)(C)[C@@H](CO)NC(=O)c1cn2c(C(=O)NC[C@@H]3CC[C@H]4C[C@@H]3C4(C)C)cccc2n1 [Compound 522, 5-N-{[(1S,2R,5S)-6,6-dimethylbicyclo[3.1.1]hept-2-yl]methyl}-2-N-[(1S)-1-(hydroxymethyl)-2,2-dimethylpropyl] imidazo[1,2-a] pyridine-2,5-dicarboxamide] | < 2 µM | 
19 | CC(C)(C)C(O)CNC(=O)c1cn2c(C(=O)NC[C@@H]3CC[C@H]4C[C@@H]3C4(C)C)cccc2n1 (stereo partly drawn) [Compound 528, 5-N-{[(1S,2R,5S)-6,6-dimethylbicyclo[3.1.1]hept-2-yl]methyl}-2-N-(2-hydroxy-3,3-dimethylbutyl)imidazo [1,2-a]pyridine-2,5-dicarboxamide] | < 2 µM | 
20 | O=C(NCC12CC3CC(CC(C3)C1)C2)c1cccc2nc(C(=O)N3CCOCC3)cn12 [Compound 529, N-(adamantan-1-ylmethyl)-2-(morpholin-4-ylcarbonyl)imidazo[1,2-a]pyridine-5-carboxamide] | < 2 µM | 
21 | Cn1ccnc1SCc1cn2c(C(=O)NCC34CC5CC(CC(C5)C3)C4)cccc2n1 [Compound 530, N-(adamantan-1-ylmethyl)-2-{[(1-methyl-1H-imidazol-2-yl)thio]methyl}imidazo [1,2-a]pyridine-5-carboxamide] | < 2 µM | 
22 | O=C(NCC12CC3CC(CC(C3)C1)C2)c1cccc2nc(CC(=O)N3CC[C@@H](O)C3)cn12 [Compound 531, N-(adamantan-1-ylmethyl)-2-{2-[(3R)-3-hydroxypyrrolidin-1-yl]-2-oxoethyl}imidazo[1,2-a]pyridine-5-carboxamide] | < 2 µM | 
23 | Cn1nnnc1SCc1cn2c(C(=O)NCC34CC5CC(CC(C5)C3)C4)cccc2n1 [Compound 532, N-(adamantan-1-ylmethyl)-2-{[(1-methyl-1H-tetrazol-5-yl)thio]methyl}imidazo [1,2-a]pyridine-5-carboxamide] | < 2 µM | 
24 | CCOC(=O)Cc1cn2c(C(=O)NCC(CC(C)C)c3cccnc3)cccc2n1 (stereo not shown) [Compound 533, ethyl {5-[(4-methyl-2-pyridin-3-ylpentyl)carbamoyl]imidazo[1,2-a]pyridin-2-yl}acetate] | < 2 µM | 
25 | CCNCc1cn2c(C(=O)NCC34CC5CC(CC(C5)C3)C4)cccc2n1 [Compound 534, N-(adamantan-1-ylmethyl)-2-[(ethylamino)methyl] imidazo[1,2-a]pyridine-5-carboxamide] | < 2 µM | 
26 | CC(CO)c1cn2c(C(=O)NCC34CC5CC(CC(C5)C3)C4)cccc2n1 (stereo not shown) [Compound 535, N-(adamantan-1-ylmethyl)-2-(2-hydroxy-1-methylethyl)imidazo[1,2-a]pyridine-5-carboxamide] | < 2 µM | 
27 | O=C(NCC12CC3CC(CC(C3)C1)C2)c1cccc2nc(CC(=O)N3CCSCC3)cn12 [Compound 536, N-(adamantan-1-ylmethyl)-2-(2-oxo-2-thiomorpholin-4-ylethyl)imidazo[1,2-a]pyridine-5-carboxamide] | < 2 µM | 
28 | O=C(NCC12CC3CC(CC(C3)C1)C2)c1cccc2nc(CN3CCS(=O)(=O)CC3)cn12 [Compound 537, N-(adamantan-1-ylmethyl)-2-[(1,1-dioxidothiomorpholin-4-yl)methyl]imidazo[1,2-a]pyridine-5-carboxamide] | < 2 µM | 
